From patent publication EP3643303A1, “COMPOUNDS FOR USE IN THE TREATMENT OR PREVENTION OF FIBROTIC DISEASES; PHARMACEUTICAL, COSMETIC COMPOSITIONS AND USES THEREOF” (InnovativeHealth Group SL, priority 2018, dated 2020)

Key:
CB2 = CB2 (Homo sapiens, UniProt P34972); details: Bisogno et al. 2001; cited from earlier work
CB1 = details: Bisogno et al. 2001; cited from earlier work
BLM-induced fibrosis = assay: Bleomycin (BLM) mouse model of skin fibrosis, histology and observation; assay type: in vivo, Mice
Experimental: The bleomycin (BLM) mice model is widely used to evaluate potential anti-inflammatory and anti-fibrotic therapies for SSc. BLM causes inflammation in a short period of time, characterized by elevation of proinflammatory cytokines and growth factors that peak around day 14 of BLM exposure. […] The inflammatory model of SSc was used to study (-)CBD preventive effects. Fibrosis was induced by daily subcutaneous administration of BLM (50 µg/mice; 100 µl) (Mylan, Barcelona, Spain) for 3 weeks. Treatments were administered in parallel and consisted of daily intraperitoneal (i.p.) injections of (-)CBD (20 mg/kg), or vehicle (4% DMSO, 6.2% Tween20, saline; 100 µl). Subcutaneous injections of 0.9% NaCl served as a control. Mice were acclimated to manipulators for a week previously to the experiments in order to reduce stress and allow the detection of subtle changes in behavior by researchers. […] Mice were sacrificed by cervical dislocation and the back skin was removed and processed for histological examination or was frozen for further analysis.
Mast cells degranulation as well as macrophages and lymphocyte accumulation are the hallmark of BLM-induced fibrosis and play important roles during the inflammatory phase of SSc. Mast cells degranulation can be identified by toluidine blue staining and macrophage accumulation by staining with a mAb that identifies F4/80^+ cells. Skin sections ([…]) were stained toluidine blue. For immunohistochemical detection of macrophages F4/80 (1:50; MCA497, Bio-Rad) antibody was used. Slides were developed with diaminobenzidine chromogen (Merck Millipore) and counterstained in Harris hematoxylin. Slides were photographed, digitalized using a Leica DFC420c camera and analyzed using Image J software.

TRPV-1 = TRPV-1 (Homo sapiens, UniProt Q8NER1); assay: Capsaicin-induced intracellular calcium mobilization (Fura-2) in HEK-293T-TRPV1 cells; assay type: cell-based; parameters: expressed in transfected cells; host or cells: HEK-293T; details: capsaicin 1 µM; Fura-2 AM; Figure 2A
Experimental: Next, the effect of (+)CBD and (-)CBD on TRPV-1 activity was investigated. TRPV-1 is an ionotropic receptor that upon activation by a specific agonist such as capsaicin mobilize intracellular calcium in TRPV-1 expressing cells. Moreover, TRPV-1-induced calcium exerts cytotoxicity in non-neuronal cells overexpressing this receptor. To explore the effect of (+)CBD on calcium mobilization HEK-293T-TRPV1 cells were cultured in 96-well plates (10^3 cells/well) and loaded with Fura 2 acetyoxymethyl ester (Fura-2 AM; 8 µM) (Molecular Probes, Carlsbad, CA) in Dulbecco's modified Eagle's medium (containing 110 mg/l pyruvate) supplemented with 10% FBS and incubated (40 min, 37°C, 5% CO2). The cells were preincubated with (+)CBD and after 15 sec treated with capsaicin (1µM). Changes in intracellular free calcium concentration (intracellular [Ca^2+]free) were measured by digital microscopy equipped with ratiometric recording of single cells. (BD Pathway 855 Bioimager). The field of cells was monitored by sequential dual excitation, 352 and 380 nm, and the analysis of the image ratios used methods described previously to calculate changes in intracellular [Ca^2+]free. The ratio images were acquired every 6 s. At the end of experiments, the cells were exposed to ionomycin (30 s, 1 µM) to obtain a maximal response.

[1] = BLM 3 weeks, 20 mg/kg i.p. daily, Figure 8

TRPV-1, sequence (Q8NER1 whole entry): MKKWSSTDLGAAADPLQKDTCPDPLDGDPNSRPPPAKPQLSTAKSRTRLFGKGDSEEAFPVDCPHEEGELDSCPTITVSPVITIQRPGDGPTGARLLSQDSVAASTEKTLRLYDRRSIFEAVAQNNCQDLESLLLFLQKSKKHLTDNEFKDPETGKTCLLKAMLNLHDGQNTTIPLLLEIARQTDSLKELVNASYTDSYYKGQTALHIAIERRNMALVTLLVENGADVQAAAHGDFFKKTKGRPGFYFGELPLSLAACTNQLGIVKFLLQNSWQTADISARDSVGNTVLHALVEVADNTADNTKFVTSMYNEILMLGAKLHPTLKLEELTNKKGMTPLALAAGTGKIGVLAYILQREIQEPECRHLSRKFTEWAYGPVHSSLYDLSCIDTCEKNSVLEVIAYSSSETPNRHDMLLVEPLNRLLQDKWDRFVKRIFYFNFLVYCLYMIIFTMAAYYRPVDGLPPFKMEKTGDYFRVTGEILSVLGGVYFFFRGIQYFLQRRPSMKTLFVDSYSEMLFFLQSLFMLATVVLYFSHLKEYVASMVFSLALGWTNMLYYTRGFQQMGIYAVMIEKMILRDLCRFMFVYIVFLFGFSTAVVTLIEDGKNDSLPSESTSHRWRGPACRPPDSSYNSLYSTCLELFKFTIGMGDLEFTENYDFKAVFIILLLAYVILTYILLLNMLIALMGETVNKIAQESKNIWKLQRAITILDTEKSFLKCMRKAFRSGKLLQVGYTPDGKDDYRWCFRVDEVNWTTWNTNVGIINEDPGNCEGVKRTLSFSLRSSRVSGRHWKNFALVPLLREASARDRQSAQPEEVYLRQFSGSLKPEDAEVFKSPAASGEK
CB2, sequence (P34972 whole entry, species assumed): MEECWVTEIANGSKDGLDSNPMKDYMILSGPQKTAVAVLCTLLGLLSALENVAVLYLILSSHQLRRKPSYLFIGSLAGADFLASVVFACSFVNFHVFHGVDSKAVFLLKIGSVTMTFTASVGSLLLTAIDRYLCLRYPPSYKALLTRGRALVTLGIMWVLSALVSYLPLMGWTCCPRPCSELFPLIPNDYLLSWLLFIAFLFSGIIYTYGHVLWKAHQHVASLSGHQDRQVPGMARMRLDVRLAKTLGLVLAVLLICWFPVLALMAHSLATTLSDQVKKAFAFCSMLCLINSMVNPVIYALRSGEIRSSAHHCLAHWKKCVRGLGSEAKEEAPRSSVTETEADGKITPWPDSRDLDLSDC

SMILES: C=C(C)[C@H]1CCC(C)=C[C@@H]1c1c(O)cc(CCCCC)cc1O [(+)CBD, (+)Cannabidiol]
- affinity at CB2 receptors (CB2): has been shown to have affinity
- affinity at CB1 receptors (CB1): has been shown to have affinity

SMILES: C=C(C)[C@@H]1CCC(C)=C[C@H]1c1c(O)cc(CCCCC)cc1O [(-)CBD, 2-[(1R,6R)-3-methyl-6-prop-1-en-2-ylcyclohex-2-en-1-yl]-5-pentylbenzene-1,3-diol]
- dermal thickness (BLM-induced fibrosis; [1]): attenuated
- loss of adipose tissue layer induced by BLM (BLM-induced fibrosis; [1]): not were able to recover
- piloerection, hunched appearances (BLM-induced fibrosis; during the experimental procedures, 20 mg/kg i.p. daily): Neither piloerection nor hunched appearances were appreciated
- behavioral changes (BLM-induced fibrosis; during the protocols, 20 mg/kg i.p. daily): No behavioral changes
- Mice weight (BLM-induced fibrosis; evaluated weekly, between experimental groups, 20 mg/kg i.p. daily): no significant changes
- infiltration of F4/80^+ macrophages (BLM-induced fibrosis; immunostaining, versus BLM untreated mice, 20 mg/kg i.p., Figure 10): significantly reduced
- number of degranulated mast cells in the lesioned skin (BLM-induced fibrosis; toluidine blue, BLM 3 weeks, 20 mg/kg i.p., Figure 9): prevented
- capsaicin-induced calcium mobilization (TRPV-1): prevent capsaicin-induced calcium mobilization
